Experimental data from US20240317866A1, “Use of Anti-EGFR/Anti-Met Antibody to Treat Gastric or Esophageal Cancer” (Janssen Biotech, Inc., priority 2022, published 2024).

Test system: gastric cancer (GC, including GEJ cancer) expressing EGFR and/or cMet
Assay: Phase 2a study of amivantamab monotherapy, gastric cancer cohort: response by RECIST Version 1.1, investigator judgement
Assay type: in vivo, human
Source text: Approximately 30 participants with any expression level of EGFR, cMet, or both proteins are enrolled in each of the Phase 2a cohort. However, based on the priorexperiences investigating anti-EGFR andanti-cMet antibodies in gastroesophageal cancers, at least 20 participants expressing IHC 2+ or higher (defined as participants expressing EGFR IHC 2+ or above and/or cMet IHC 2+ or above) are enrolled. Additional enrollment in Phase 2a cohorts may be allowed to achieve this minimal enrollment.
This is an open-label, multicenter, multi-arm Phase 2 interventional study in participants with previously treated advanced or unresectable GC or EC who are 20 years or older (or the legal age of consent in the jurisdiction in which the study is taking place). Japanese participants with gastric/GEJ or EC who express varying degrees of EGFR, cMet, or both as determined by IHC locally or centrally are enrolled in the GC cohort or EC cohort.
The baseline disease assessments are performed as close as possible to the start of treatment, but no more than 28 days prior to the first dose. Subsequent assessments are performed at 6 weeks (+1 week) after initiation of study treatment administration, then every 6 weeks (±1 week) for the first 12 months and then every 12 weeks (±1 week) until objective radiographic disease progression. Timing for each disease assessment is relative to the first dose of study treatment administration, regardless of dose modifications, and continues until disease progression. Any other site at which new disease is suspected is also imaged.
For purposes of analysis, the following populations are defined: • (1) All Treated population: All participants who take at least 1 dose of study treatment; • (2) Response evaluable population: All participants who satisfy the following criteria: • Receive at least 1 dose of study treatment; • At least 2 post-baseline efficacy disease assessments, or discontinued treatment for any reason, or have disease progression/death prior to the second post-baseline disease assessment; • (3) Safety population: All participants who take at least 1 dose of study treatment; • (4) Pharmacokinetics population: All participants who receive at least 1 dose of study treatment and have at least 1 evaluable post-baseline measurement; • (5) Immunogenicity population: All participants who receive at least 1 dose of study treatment and have at least 1 evaluable post-baseline measurement.
The primary efficacy measure is ORR. Objective response rate is defined as the proportion of participants who achieve either CR or PR, determined by investigator assessment using RECIST Version 1.1. Confirmation of investigator-assessed ORR may be performed through IRC in the Phase 2b.
Disease Control Rate: Disease control rate is defined as the percentage of participants achieving complete or partial response or stable disease for at least 6 weeks as defined by RECIST Version1.1. The DCR and its 95% CI with Clopper-Pearson method are also calculated.
Next, response to treatment was evaluated. The “All Treated” patient population were patients who received at least 1 dose of study treatment.

[1] = all treated population, IHC 1+, N=5, 1,050/1,400 mg IV
[2] = all treated population, IHC 1+, N=5, 1,050/1,400 mg IV, number of participants
[3] = all treated population, IHC 2+, N=11, 1,050/1,400 mg IV
[4] = all treated population, IHC 2+, N=11, 1,050/1,400 mg IV, number of participants
[5] = all treated population, IHC 3+, N=9, 1,050/1,400 mg IV
[6] = all treated population, IHC 3+, N=9, 1,050/1,400 mg IV, number of participants
[7] = all treated population, IHC NA, N=4, 1,050/1,400 mg IV
[8] = all treated population, IHC NA, N=4, 1,050/1,400 mg IV, number of participants
[9] = all treated population, Total, N=29, 1,050/1,400 mg IV
[10] = all treated population, Total, N=29, 1,050/1,400 mg IV, number of participants
[11] = response evaluable population, IHC 1+, N=4, 1,050/1,400 mg IV
[12] = response evaluable population, IHC 1+, N=4, 1,050/1,400 mg IV, number of participants
[13] = response evaluable population, IHC 2+, N=11, 1,050/1,400 mg IV
[14] = response evaluable population, IHC 2+, N=11, 1,050/1,400 mg IV, number of participants
[15] = response evaluable population, IHC 3+, N=9, 1,050/1,400 mg IV
[16] = response evaluable population, IHC 3+, N=9, 1,050/1,400 mg IV, number of participants
[17] = response evaluable population, Total, N=24, 1,050/1,400 mg IV
[18] = response evaluable population, Total, N=24, 1,050/1,400 mg IV, number of participants

Question: amivantamab was tested. Which “Disease control rate (CR + PR + SD)” value [1] did it give?
Answer: (20.0%)

Question: What about the “Not Evaluable (NE)” value [1] of the same substance?
Answer: (40.0%)

Question: What about the “Progressive Disease (PD)” value [1] of the same substance?
Answer: (40.0%)

Question: What about the “Complete response (CR)” value [2] of the same substance?
Answer: 0

Question: What about the “Disease control rate (CR + PR + SD)” value [2] of the same substance?
Answer: 1

Question: And the “Not Evaluable (NE)” value [2]?
Answer: 2

Question: And the “Objective response rate (CR + PR)” value [2]?
Answer: 0

Question: And the “Partial response (PR)” value [2]?
Answer: 0

Question: And the “Progressive Disease (PD)” value [2]?
Answer: 2

Question: What about the “Disease control rate (CR + PR + SD)” value [3] of the same substance?
Answer: (9.1%)

Question: What about the “Not Evaluable (NE)” value [3] of the same substance?
Answer: (9.1%)

Question: What about the “Progressive Disease (PD)” value [3] of the same substance?
Answer: (81.8%)

Question: What about the “Complete response (CR)” value [4] of the same substance?
Answer: 0

Question: What about the “Disease control rate (CR + PR + SD)” value [4] of the same substance?
Answer: 1

Question: What about the “Not Evaluable (NE)” value [4] of the same substance?
Answer: 1

Question: What about the “Objective response rate (CR + PR)” value [4] of the same substance?
Answer: 0

Question: What about the “Partial response (PR)” value [4] of the same substance?
Answer: 0

Question: What about the “Progressive Disease (PD)” value [4] of the same substance?
Answer: 9

Question: And the “Disease control rate (CR + PR + SD)” value [5]?
Answer: (44.4%)

Question: What about the “Objective response rate (CR + PR)” value [5] of the same substance?
Answer: (11.1%)

Question: And the “Partial response (PR)” value [5]?
Answer: (11.1%)

Question: And the “Progressive Disease (PD)” value [5]?
Answer: (55.6%)

Question: What about the “Complete response (CR)” value [6] of the same substance?
Answer: 0

Question: What about the “Disease control rate (CR + PR + SD)” value [6] of the same substance?
Answer: 4

Question: What about the “Not Evaluable (NE)” value [6] of the same substance?
Answer: 0

Question: What about the “Objective response rate (CR + PR)” value [6] of the same substance?
Answer: 1

Question: And the “Partial response (PR)” value [6]?
Answer: 1

Question: What about the “Progressive Disease (PD)” value [6] of the same substance?
Answer: 5

Question: And the “Disease control rate (CR + PR + SD)” value [7]?
Answer: (25.0%)

Question: And the “Progressive Disease (PD)” value [7]?
Answer: (75.0%)

Question: What about the “Complete response (CR)” value [8] of the same substance?
Answer: 0

Question: And the “Disease control rate (CR + PR + SD)” value [8]?
Answer: 1

Question: What about the “Not Evaluable (NE)” value [8] of the same substance?
Answer: 0

Question: And the “Objective response rate (CR + PR)” value [8]?
Answer: 0

Question: What about the “Partial response (PR)” value [8] of the same substance?
Answer: 0

Question: And the “Progressive Disease (PD)” value [8]?
Answer: 3

Question: And the “Disease control rate (CR + PR + SD)” value [9]?
Answer: (24.1%)

Question: What about the “Not Evaluable (NE)” value [9] of the same substance?
Answer: (10.3%)

Question: What about the “Objective response rate (CR + PR)” value [9] of the same substance?
Answer: (3.4%)

Question: And the “Partial response (PR)” value [9]?
Answer: (3.4%)

Question: And the “Progressive Disease (PD)” value [9]?
Answer: (65.5%)

Question: What about the “Complete response (CR)” value [10] of the same substance?
Answer: 0

Question: What about the “Disease control rate (CR + PR + SD)” value [10] of the same substance?
Answer: 7

Question: And the “Not Evaluable (NE)” value [10]?
Answer: 3

Question: And the “Objective response rate (CR + PR)” value [10]?
Answer: 1

Question: And the “Partial response (PR)” value [10]?
Answer: 1

Question: And the “Progressive Disease (PD)” value [10]?
Answer: 19

Question: And the “Disease control rate (CR + PR + SD)” value [11]?
Answer: (25.0%)

Question: And the “Not Evaluable (NE)” value [11]?
Answer: (25.0%)

Question: What about the “Progressive Disease (PD)” value [11] of the same substance?
Answer: (50.0%)

Question: And the “Complete response (CR)” value [12]?
Answer: 0

Question: And the “Disease control rate (CR + PR + SD)” value [12]?
Answer: 1

Question: What about the “Not Evaluable (NE)” value [12] of the same substance?
Answer: 1

Question: And the “Objective response rate (CR + PR)” value [12]?
Answer: 0

Question: And the “Partial response (PR)” value [12]?
Answer: 0

Question: And the “Progressive Disease (PD)” value [12]?
Answer: 2

Question: What about the “Disease control rate (CR + PR + SD)” value [13] of the same substance?
Answer: (9.1%)

Question: What about the “Not Evaluable (NE)” value [13] of the same substance?
Answer: (9.1%)

Question: And the “Progressive Disease (PD)” value [13]?
Answer: (81.8%)

Question: What about the “Complete response (CR)” value [14] of the same substance?
Answer: 0

Question: What about the “Disease control rate (CR + PR + SD)” value [14] of the same substance?
Answer: 1

Question: And the “Not Evaluable (NE)” value [14]?
Answer: 1

Question: And the “Objective response rate (CR + PR)” value [14]?
Answer: 0

Question: What about the “Partial response (PR)” value [14] of the same substance?
Answer: 0

Question: What about the “Progressive Disease (PD)” value [14] of the same substance?
Answer: 9

Question: What about the “Disease control rate (CR + PR + SD)” value [15] of the same substance?
Answer: (44.4%)

Question: And the “Objective response rate (CR + PR)” value [15]?
Answer: (11.1%)

Question: What about the “Partial response (PR)” value [15] of the same substance?
Answer: (11.1%)

Question: What about the “Progressive Disease (PD)” value [15] of the same substance?
Answer: (55.6%)

Question: And the “Complete response (CR)” value [16]?
Answer: 0

Question: What about the “Disease control rate (CR + PR + SD)” value [16] of the same substance?
Answer: 4

Question: What about the “Not Evaluable (NE)” value [16] of the same substance?
Answer: 0

Question: And the “Objective response rate (CR + PR)” value [16]?
Answer: 1

Question: And the “Partial response (PR)” value [16]?
Answer: 1

Question: And the “Progressive Disease (PD)” value [16]?
Answer: 5

Question: And the “Not Evaluable (NE)” value [17]?
Answer: (8.3%)

Question: And the “Objective response rate (CR + PR)” value [17]?
Answer: (4.2%)

Question: What about the “Partial response (PR)” value [17] of the same substance?
Answer: (4.2%)

Question: What about the “Progressive Disease (PD)” value [17] of the same substance?
Answer: (66.7%)

Question: And the “Complete response (CR)” value [18]?
Answer: 0

Question: And the “Disease control rate (CR + PR + SD)” value [18]?
Answer: 6

Question: And the “Not Evaluable (NE)” value [18]?
Answer: 2

Question: What about the “Objective response rate (CR + PR)” value [18] of the same substance?
Answer: 1

Question: And the “Partial response (PR)” value [18]?
Answer: 1

Question: And the “Progressive Disease (PD)” value [18]?
Answer: 16
